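Exposure lasted 48 hours, with cells grown in 96-well plates and compounds tested at five concentrations. GI50 is the concentration that inhibits growth by half.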 Activity calls are given as the source filed them. Rule as the data show it: active = GI50 up to about 1.1 µM and inactive = higher.
Key:
Assay in all cases: NCI tumour cell line growth inhibition, 48 h
HT-29 = test system: HT-29
COLO 205 = test system: COLO 205
OVCAR-8 = test system: OVCAR-8
HCC 2998 = test system: HCC 2998
MCF7 = test system: MCF7
SNB-19 = test system: SNB-19
CCRF-CEM = test system: CCRF-CEM
SK-MEL-2 = test system: SK-MEL-2
TK-10 = test system: TK-10
LOX IMVI = test system: LOX IMVI
HL-60 = test system: HL-60
Malme-3M = test system: Malme-3M
SF-268 = test system: SF-268
U-251 = test system: U-251
RPMI-8226 = test system: RPMI-8226
RXF 393 = test system: RXF 393
IGROV-1 = test system: IGROV-1
K562 = test system: K562
SN12C = test system: SN12C
OVCAR-3 = test system: OVCAR-3

Structure (SMILES): COc1cccc(N2C(=O)C3c4[nH]c5ccc(C)cc5c4C4CCC(C(C)(C)C)CC4C3C2=O)c1 (stereo unspecified)
- GI50 (HT-29): 4.08 µM (inactive)
- GI50 (COLO 205): 7.16 µM (inactive)
- GI50 (OVCAR-8): 2.58 µM (inactive)
- GI50 (HCC 2998): 4.11 µM (inactive)
- GI50 (MCF7): 2.99 µM (inactive)
- GI50 (SNB-19): > 10 µM (inactive)
- GI50 (CCRF-CEM): 2.77 µM (inactive)
- GI50 (SK-MEL-2): > 10 µM (inactive)
- GI50 (TK-10): > 10 µM (inactive)
- GI50 (LOX IMVI): 2.43 µM (inactive)
- GI50 (HL-60): 1.95 µM (inactive)
- GI50 (Malme-3M): > 10 µM (inactive)
- GI50 (SF-268): 4.73 µM (inactive)
- GI50 (U-251): 3.52 µM (inactive)
- GI50 (RPMI-8226): 4.06 µM (inactive)
- GI50 (RXF 393): 3.8 µM (inactive)
- GI50 (IGROV-1): > 10 µM (inactive)
- GI50 (K562): 2.65 µM (inactive)
- GI50 (SN12C): 3.15 µM (inactive)
- GI50 (OVCAR-3): 5.46 µM (inactive)

Structure (SMILES): Cc1c2c(cc3c1[nH]c1ccccc13)C(c1ccc(F)cc1)=NCC2
- GI50 (HT-29): 1.17 µM (inactive)
- GI50 (COLO 205): 0.679 µM (active)
- GI50 (OVCAR-8): 1.81 µM (inactive)
- GI50 (HCC 2998): 1.04 µM (active)
- GI50 (MCF7): 1.09 µM (active)
- GI50 (SNB-19): 1.41 µM (inactive)
- GI50 (CCRF-CEM): 1.14 µM (inactive)
- GI50 (SK-MEL-2): 1.21 µM (inactive)
- GI50 (LOX IMVI): 0.509 µM (active)
- GI50 (HL-60): 0.358 µM (active)
- GI50 (Malme-3M): 1.68 µM (inactive)
- GI50 (SF-268): 2.18 µM (inactive)
- GI50 (U-251): 1.43 µM (inactive)
- GI50 (RPMI-8226): 0.935 µM (active)
- GI50 (RXF 393): 1.42 µM (inactive)
- GI50 (IGROV-1): 0.855 µM (active)
- GI50 (K562): 0.379 µM (active)
- GI50 (SN12C): 1.63 µM (inactive)
- GI50 (OVCAR-3): 0.993 µM (active)

Structure (SMILES): CCCC[C@H]1[C@@H](OCOc2ccccc2)COC(=O)N1[C@H](C)c1ccccc1
- GI50 (HT-29): > 34.2 µM (inactive)
- GI50 (COLO 205): 25.9 µM (inactive)
- GI50 (OVCAR-8): > 49.2 µM (inactive)
- GI50 (HCC 2998): 17.7 µM (inactive)
- GI50 (MCF7): 11.2 µM (inactive)
- GI50 (SNB-19): 21.3 µM (inactive)
- GI50 (CCRF-CEM): 16.8 µM (inactive)
- GI50 (SK-MEL-2): 15.1 µM (inactive)
- GI50 (TK-10): 15.6 µM (inactive)
- GI50 (LOX IMVI): 20.8 µM (inactive)
- GI50 (HL-60): 18 µM (inactive)
- GI50 (Malme-3M): 15.7 µM (inactive)
- GI50 (SF-268): 16.6 µM (inactive)
- GI50 (U-251): 14.7 µM (inactive)
- GI50 (RPMI-8226): 6.76 µM (inactive)
- GI50 (RXF 393): 19 µM (inactive)
- GI50 (IGROV-1): 14.7 µM (inactive)
- GI50 (K562): 7.18 µM (inactive)
- GI50 (SN12C): 10.2 µM (inactive)
- GI50 (OVCAR-3): 14.7 µM (inactive)

Structure (SMILES): Cc1ccccc1OCC(COC(=O)Nc1ccccc1)OC(=O)Nc1ccccc1 (stereo unspecified)
- GI50 (HT-29): 31.6 µM (inactive)
- GI50 (COLO 205): 72.3 µM (inactive)
- GI50 (OVCAR-8): 26.5 µM (inactive)
- GI50 (HCC 2998): 83.8 µM (inactive)
- GI50 (SNB-19): 22.1 µM (inactive)
- GI50 (CCRF-CEM): > 100 µM (inactive)
- GI50 (SK-MEL-2): 22 µM (inactive)
- GI50 (TK-10): > 100 µM (inactive)
- GI50 (LOX IMVI): 15.1 µM (inactive)
- GI50 (HL-60): 4.28 µM (inactive)
- GI50 (Malme-3M): 30.9 µM (inactive)
- GI50 (SF-268): 50.9 µM (inactive)
- GI50 (U-251): 38 µM (inactive)
- GI50 (RPMI-8226): 1.81 µM (inactive)
- GI50 (RXF 393): 7.24 µM (inactive)
- GI50 (IGROV-1): > 100 µM (inactive)
- GI50 (K562): 4.05 µM (inactive)
- GI50 (SN12C): 26.8 µM (inactive)
- GI50 (OVCAR-3): 87.7 µM (inactive)

Structure (SMILES): Cc1cccc(N2C(=O)C3c4[nH]c5ccc(C)cc5c4C4CCC(C(C)(C)C)CC4C3C2=O)c1 (stereo unspecified)
- GI50 (HT-29): 21.4 µM (inactive)
- GI50 (COLO 205): 17.4 µM (inactive)
- GI50 (OVCAR-8): 19 µM (inactive)
- GI50 (SNB-19): 25.2 µM (inactive)
- GI50 (CCRF-CEM): 21.4 µM (inactive)
- GI50 (SK-MEL-2): 38.1 µM (inactive)
- GI50 (TK-10): 24.6 µM (inactive)
- GI50 (LOX IMVI): 17.2 µM (inactive)
- GI50 (HL-60): 17.7 µM (inactive)
- GI50 (Malme-3M): 24.3 µM (inactive)
- GI50 (SF-268): 15.5 µM (inactive)
- GI50 (U-251): 23.6 µM (inactive)
- GI50 (RPMI-8226): 15.5 µM (inactive)
- GI50 (IGROV-1): 26.5 µM (inactive)
- GI50 (K562): 23.9 µM (inactive)
- GI50 (OVCAR-3): 13.6 µM (inactive)

Structure (SMILES): Cc1[nH]c(=O)[nH]c(=O)c1C(=O)N(CCO)Cc1ccccc1
- GI50 (HT-29): > 100 µM (inactive)
- GI50 (COLO 205): 22.3 µM (inactive)
- GI50 (HCC 2998): > 100 µM (inactive)
- GI50 (MCF7): > 100 µM (inactive)
- GI50 (SNB-19): > 100 µM (inactive)
- GI50 (CCRF-CEM): > 100 µM (inactive)
- GI50 (SK-MEL-2): > 100 µM (inactive)
- GI50 (TK-10): > 100 µM (inactive)
- GI50 (LOX IMVI): > 100 µM (inactive)
- GI50 (HL-60): > 100 µM (inactive)
- GI50 (Malme-3M): > 100 µM (inactive)
- GI50 (SF-268): > 100 µM (inactive)
- GI50 (U-251): > 100 µM (inactive)
- GI50 (RPMI-8226): > 100 µM (inactive)
- GI50 (RXF 393): 30 µM (inactive)
- GI50 (IGROV-1): 33 µM (inactive)
- GI50 (K562): > 100 µM (inactive)
- GI50 (SN12C): > 100 µM (inactive)
- GI50 (OVCAR-3): > 100 µM (inactive)

Structure (SMILES): O=C(O)C1CCCCN1C(=O)c1ccccc1 (stereo unspecified)
- GI50 (HT-29): > 100 µM (inactive)
- GI50 (COLO 205): > 100 µM (inactive)
- GI50 (OVCAR-8): > 100 µM (inactive)
- GI50 (HCC 2998): > 100 µM (inactive)
- GI50 (SNB-19): > 100 µM (inactive)
- GI50 (CCRF-CEM): > 100 µM (inactive)
- GI50 (TK-10): > 100 µM (inactive)
- GI50 (LOX IMVI): > 100 µM (inactive)
- GI50 (HL-60): > 100 µM (inactive)
- GI50 (Malme-3M): > 100 µM (inactive)
- GI50 (SF-268): > 100 µM (inactive)
- GI50 (U-251): > 100 µM (inactive)
- GI50 (RPMI-8226): > 100 µM (inactive)
- GI50 (RXF 393): > 100 µM (inactive)
- GI50 (IGROV-1): > 100 µM (inactive)
- GI50 (K562): > 100 µM (inactive)
- GI50 (SN12C): > 100 µM (inactive)
- GI50 (OVCAR-3): > 100 µM (inactive)

— ChEMBL document CHEMBL1201862, “PubChem BioAssay data set” (2004)
